Measurements: patent US20250041231A1, “5-AMINOLEVULINIC ACID FOR THE LOCAL TREATMENT OF INFLAMMATORY BOWEL DISEASE” (Intract Pharma Limited, priority 2019, published 2025)
Entries after “also recorded” stand apart in the source; their conditions may differ.

Tests used:
[1] = test system: DSS induced colitis mouse model
[2] = Ussing chamber: mouse colon tissue penetration and permeability of 5-ALA with SFC, metabolite formation; format: in vitro ADME, C57BL6 mice; details: mouse colon vs human colon, 3 hours
Method: (§1) The chambers are made of solid acrylic and supports the tissue membrane in such a way that each side of the membrane is isolated and faces a different chamber representing the luminal (apical) and blood (basal) compartments. The working system consists of a unit to fit a maximum of six vertical chambers, a gas manifold for carbogen purging (95% O2, 5% CO2) and a heater block to maintain the temperature of the chambers at 37° C. during the experiments with the use of a circulating water bath. The chambers are two-piece assemblies held together by a high spring-tension retaining ring to ensure leak-free operation during the experiments.
(§2) The EVOM™ voltohmmeter (World Precision Instruments, Inc., Hertfordshire, UK) and Ag/AgCl electrodes (Harvard Apparatus, Cambridge, UK) were used to measure the trans-epithelial electrical resistance (TEER) of the tissue samples. TEER monitors the presence of functional tight junctions, which are responsible for the barrier function and which limit Paracellular permeation of water and solutes. […]
(§3) For the tissue penetration studies, the freshly excised colon of human subject or C57BL6 mice was collected and transferred to an ice-cold solution of Krebs-Bicarbonate Ringer solution (KBr) of pH 7.4. […] The TEER was continuously monitored during the experiment to confirm the viability and integrity of the tissue.

[3] = Ussing chamber: human colon tissue penetration and permeability of 5-ALA with SFC, metabolite formation; format: in vitro ADME
Method: as §1, §2, §3

[4] = Mouse colon model (faecal slurry): stability of 5-ALA with SFC and formation of PpIX; format: in vitro ADME, C57BL6 mice
Method: (§4) A mouse colonic model based on a mixed fecal inoculum was used to mimic the luminal environment of the mouse large intestine. An anaerobic workstation (Electrotek 500TG™ workstation, Electrotek, West Yorkshire, UK) maintained at 37° C. and 70% relative air humidity was used to set up the model. Three healthy male C57BL6 mice were sacrificed and the fecal contents were collected. The fecal material was transferred in the anaerobic workstation and diluted with freshly prepared basal medium to obtain 20% w/w slurry by homogenization. The basal media provides nutrients and growth factors to the microbiota allowing viability for upto 24 hours. […]
(§5) For 5-ALA analysis, a 150×4.6-mm Jupiter 5 μm 300 Å (Phenomenex, Torrance, CA) C18 column was used using 70% water (0.1% TFA) and 30% acetonitrile (0.1% TFA) as the mobile phase for elution, at a flow rate of 1 ml/min. The analysis was operated at room temperature and fluorescence detection wavelength was set at 395/480 nm excitation/emission. […]
(§6) For PpIX analysis, a 150×4.6-mm Aeris 3.6 μm 100 Å (Phenomenex, Torrance, CA) C18 column was used using 70% acetonitrile and 30% 10 mM TBA solution (pH 7.5) as the mobile phase at a flow rate of 1 ml/min. The analysis was operated at room temperature and fluorescence detection wavelength was set at 400/630 nm excitation/emission. […]

[5] = Human colon model (faecal slurry): stability of 5-ALA with SFC and formation of PpIX; format: in vitro ADME
Method: as §4, with “human” for “mouse”, “model.” for “model. Three healthy male C57BL6 mice were sacrificed and the fecal contents were collected.”, “up to” for “upto”, “hours. The homogenized bacterial media was sieved through an open mesh fabric (SefarNitex™, pore size 350 μm) to remove any nonhomogeneous fibrous material.” for “hours.”
as §5, §6

[6] = intra-colonic vs oral, 10 and 100 mg/kg, day 10
[7] = oral vs intra-colonic dosing, day 10

Bilirubin expression in the colon tissue and plasma [1, 7]: no significant difference | Biliverdin expression in the colon tissue and plasma [1, 7]: no significant difference | Permeability of 5-ALA across the tissue [2]: higher | Stability of 5-ALA in mouse colon fluid ([4]; 6 mg/ml 5-ALA + 1 mg/ml SFC, 10% w/w mouse faecal slurry, up to 24 hrs): completely stable | Conversion of 5-ALA into PpIX in mouse colon fluid ([4]; in the presence of SFC): no conversion
Compound: NCC(=O)CCC(=O)O [5-ALA, 5-aminolevulinic acid]
Reduction of expression of IL-1β in the colon tissue and plasma [1, 6]: significantly better than after oral administration | Reduction of expression of IL-6 in the colon tissue and plasma [1, 6]: significantly better than after oral administration | Reduction of expression of TNF-α in the colon tissue and plasma [1, 6]: significantly better than after oral administration | Expression of HO-1 in the colon tissue and plasma ([1]; oral vs intra-colonic dosing): no significant difference | Expression of 5-ALA metabolite PpIX in the plasma ([1]; oral vs intra-colonic dosing, 10 and 100 mg/kg): Significantly enhanced expression of PpIX was observed in the plasma after oral dosing, but not intra-colonic dosing | Reduction in inflammatory cytokines compared with 5-ASA ([1]; vs 5-ASA 50 mg/kg oral and intra-colonic): superior to 5-ASA given both orally and intra-colonic | Tissue conc. of 5-ALA ([3]; human colon vs mouse colon, Ussing chamber, 3 hours): higher in human colon compared to mouse colon | Penetration of 5-ALA into colon tissue ([3]; human colonic tissue in vitro): readily able to penetrate effectively into colon tissue | Stability of 5-ALA in human colon fluid ([5]; 6 mg/ml 5-ALA + 1 mg/ml SFC, 10% w/w human faecal slurry, up to 24 hrs): completely stable; also recorded: very stable | Conversion of 5-ALA into PpIX in human colon fluid ([5]; in the presence of SFC): no conversion; also recorded: no metabolism
